We go through two compounds from paper PMC10042540, “Targeting oncogenic KRasG13C with nucleotide-based covalent inhibitors” (eLife, 2023).

One assay has as its target KRasWT1-169 (Homo sapiens, UniProt P01116). As to the kind of experiment: HPLC-based approach for determination of affinities relative to GDP. The format is binding. The note with it: KA = KA(GDP) x KrelA; GDP from KA = 1/KD. Here is the method:
The relative affinities of the nucleotide analogues were measured using an HPLC-based approach. 50 μM of […] was mixed with 50 μM of the acetamide derivatives and incubated either for 7 days at room temperature in the absence of EDTA, for 24 hr at 4 °C in the presence of 10 mM EDTA, or for 1 hr at room temperature in the presence of SOS in a buffer consisting of 20 mM HEPES (pH 7.5), 100 mM NaCl, 2 mM MgCl2, 1 mM TCEP and 5% glycerol. After incubation, the Ras proteins were washed five times with buffer (15 mL) using centrifugal filter devices to remove any unbound nucleotide, concentrated and analysed by isocratic HPLC runs. The resulting curves were analysed by integrating the corresponding peaks for GDP and the guanosine nucleotide analogues after distinct time points using the Agilent ChemStation Software (Table 1-source data 3, Table 1-source data 4). Based on the percentage distribution determined by the HPLC assay, the relative association constants (KrelA) for […] and bdaGDP could subsequently be calculated. In contrast, the superposition of the GDP signal prevented an exact determination of the relative association constant for […] values of 0.34 and 0.28 relative to GDP were determined for […] and bdaGDP, respectively. […] By rearranging the equilibrium reactions listed in (Equation 1a) and (Equation 1b), the following relationships are obtained for KGDP (Equation 2a) and […] Assuming that the concentration for aGDP used in the HPLC assay is 50 μM, the following GDP concentrations for […] (Equation 3a) and bdaGDP (Equation 3b) can be determined at time t=0 hr using the percentages determined in Table 1-source data 3:(3a) GDPtotal=%GDP/%[…]=37%/63%×50μM=29.4μM (3b) GDPtotal=%GDP/%bdaGDP=43%/57%×50μM=37.7μM The concentrations of the components listed in equation (Equation 2b) can be calculated as follows for […] (Equation 4a, Equation 4b, Equation 4c, Equation 4d) and bdaGDP (Equation 5a, Equation 5b, Equation 5c, Equation 5d) by considering the total GDP concentrations calculated previously:(4[…]]=47/100×29.4μM=13.8μM (4b) [Ras:GDP]=53/100×29.4μM=15.6μ[…]]=50μM-13.8μM=36.2μM (4d) [GDP]=29.4μM-15.6μM=13.8μM (5a) [Ras:bdaGDP]=39.5/100×37.7μM=14.9μM (5b) [Ras:GDP]=60.5/100×37.7μM=22.8μM (5c) [bdaGDP]=50μM-14.9μM=35.1μM (5d) [GDP]=37.7μM-22.8μM=14.9μM The relative association constant KrelA can be calculated by the following formula (Equation 6):(6) […] By inserting the concentrations of each component determined from (Equation 4a, Equation 4b, Equation 4c, Equation 4d) and (Equation 5a, Equation 5b, Equation 5c, Equation 5d) into (Equation 6), the relative association constants KrelA for […] (Equation 10a) and […]=1/0.136pM^-1=7.4pM (10b) KDbdaGDP=1/0.112pM^-1=8.9pM

The subject of a further assay is nucleotide-free KRas. The assay is described as follows: Stopped-flow competition with mantdGDP (association kinetics). The class given is binding. The note with it: for kon: 25 °C, 1 µM KRas, 2 µM mantdGDP, 1, 2, 6 µM competing nucleotide, global fit. Here is the method:
The association kinetics of the nucleotide analogues were analyzed with a SX-20 stopped-flow instrument (Applied Photophysics) at 25 °C in a buffer consisting of 25 mM HEPES (pH 7.5), 100 mM NaCl, 1 mM MgCl2, and 0.5 mM TCEP. 1 µM of nucleotide-free KRas ([Müller et al., 2017]) in one syringe was mixed rapidly with 2 µM mantdGDP in the other. In subsequent experiments, the second syringe contained competing nucleotides (1, 2, and 6 µM) in addition to 2 µM mantdGDP. The resulting progress curves were globally fit using KinTek Explorer to obtain the corresponding association rate constants as previously described (Table 1—source data 1, Table 1—source data 2 [Johnson et al., 2009]).

A further assay concerns the target KRas. Details: method as in Jeganathan et al., 2018. The note with it: reference value for GDP; ref Jeganathan et al., 2018; cited from earlier work.
For assay [1], the system named is T1, KRasG13C1-169 (Cys-light).
T1 construct: KRasWT1-169 and KRasG13C1-169 Cys-light (C51S C80L C118S) were expressed in BL21 (DE3) E. coli; hexahistidine (TEV site) (N, cleaved yes); made in house; host or cells: E. coli BL21 (DE3)
As to the kind of experiment: Covalent modification of protein controlled by ESI-MS. The format is binding. Here is the method: After incubation at room temperature for the appropriate time, the modification of the protein was controlled by ESI-MS. For covalent modification of full-length KRasG13C, a nucleotide exchange with a 10-fold excess of the acryl-bearing nucleotides at pH 7.5 was first performed following incubation at room temperature for 24 h at pH 9.5 for covalent protein modification. Covalent protein modification was controlled by ESI-MS. The MS spectra were recorded on a VelosPro IonTrap (Thermo Scientific) with an EC 50/3 Nucleodur C18 1.8 μm column (Macherey and Nagel) and a gradient of the mobile phase A (0.1% formic acid in water) to B (0.1% formic acid in acetonitrile).

Another assay has as its system Rab21. Described as above. The note with it: compared to KRasG13C. The class given is binding.

Chain of KRasWT1-169 (P01116 1-169): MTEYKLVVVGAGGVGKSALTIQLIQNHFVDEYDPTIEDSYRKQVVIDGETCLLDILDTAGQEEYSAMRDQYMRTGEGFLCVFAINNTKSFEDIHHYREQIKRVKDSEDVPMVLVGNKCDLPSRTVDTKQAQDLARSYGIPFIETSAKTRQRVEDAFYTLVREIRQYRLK

By Kd is commonly meant the equilibrium constant for the complex coming apart. Turning to `Nc1nc2c(ncn2[C@@H]2O[C@H](COP(=O)(O)OP(=O)(O)O)[C@@H](O)[C@H]2O)c(=O)[nH]1` [GDP, reference compound], the KA on KRasWT1-169 was 0.4 pM⁻¹. This compound came in with a kon with nucleotide-free KRas of 4.22 µM^–1s^–1. In the assay on nucleotide-free KRas (calculated kinetic parameter), the koff is on record as 1.1x10^–5 s^–1. Further, at KRas, the Kd was 2.5 pM.

Take `C=CC(=O)NCCNC(=O)O[C@H]1[C@@H](O)[C@H](n2cnc3c(=O)[nH]c(N)nc32)O[C@@H]1COP(=O)(O)OP(=O)(O)O` [edaGDP]: the kon with nucleotide-free KRas was determined as 3.73 µM^–1s^–1. The “covalent labelling of KRasG13C1-169 (Cys-light)” value in assay [1] (pH 7.5, after 24 hr) is reported as “slight labelling”; in assay [1] (pH 9.5, after 24 hr), roughly 100%. In addition, in the assay with Rab21, the “covalent modification of Rab21” value is given as “comparable to KRasG13C”.
